From patent US20200206313A1, “POLYPEPTIDE NANOTUBES LINKED BY DISULFIDE BONDS FOR TARGETED DELIVERY OF CYTOTOXIC THERAPIES” (MUSC FOUNDATION FOR RESEARCH DEVELOPMENT, priority 2018, published 2020)
No end group written: not given here. *: point of attachment. FITC = O=C1OC2(c3ccc(O)cc3Oc3cc(O)ccc32)c2ccc(NC(=S)*)cc21

How the values were obtained:
HeLa = test: Cytotoxicity, MTT assay, HeLa; assay type: cell-based
Description: (§1) HeLa (Cervical cancer cell line), MDA-MB-231 (Breast cancer cell line) and HaCaT (Human keratinocytes) cells were maintained in growth medium consisting of Dulbecco's Modified Eagle's Medium (DMEM, Gibco, India) with high glucose, supplemented with 10% FBS and 1% penicillin-streptomycin. The cells were grown in […] flasks (BD Falcon) and passaged every three days. All culture reagents were purchased from Thermofisher scientific. The serum free media was used to eliminate any confounding effects from serum adsorption to the nanotubes. Within the time-period (5 h) of the experiment, no adverse cellular responses were observed from serum deprivation or serum shock after a transfer from serum containing growth media.
(§2) Cytotoxicity of nanotube, DOX loaded nanotube and free DOX were assessed in HeLa and MDAMB231 using the MTT assay. About 5×10^3 cells were seeded per well of a 96-well plate and allowed to attach during incubation for 24 h in a humidified incubator at 37° C. Cells were treated with different concentrations of nanotubes, free DOX or DOX loaded nanotubes ranging from 0.2 to 6.4 μg/ml. Four hours before termination of the assay, MTT was added. Mitochondria of viable cells […] MTT to produce purple Formazan crystals. […] The absorbance of each well was measured at 570 nm using a microplate reader (Synergy HT, BioTek Instrument Inc., Winooski Vt.). […]

MDAMB231 = test: Cytotoxicity, MTT assay, MDAMB231; assay type: cell-based
Description: as §1, §2

HeLa cells [1] = test: Cellular uptake of DOX by FACS, HeLa; assay type: cell-based; conditions: percentage population, 0.4 μg/ml, the sentence does not name the cell line (HeLa assumed)
Description: Fluorescence-activated cell sorting (FACS) was used to quantify the cellular uptake of free Doxorubicin and that released from the Nanotube-DOX conjugates exposed to HeLa and HaCaT cells. The cells were treated with free DOX and Nanotube-DOX for 0.5, 1, 2 and 4 h using concentrations corresponding to their IC50 values. The cells were washed with DPBS to remove the unassimilated DOX and then trypsinized. The cell suspension was then centrifuged, and the pellet was re-suspended in 300 μl of DPBS with 0.1% of FBS. The DOX uptake was estimated by quantifying the cell populations using FACS employing Cell Quest software (using a FACSCalibur instrument, BD Biosciences, San Jose Calif.).

HeLa cells [2] = test: Confocal visualization of cellular uptake of DOX in HeLa cells; assay type: cell-based; conditions: 0.4 μg/ml, 1 h and 4 h
Description: (§3) For microscopic analysis, cells were grown on sterile coverslips with all treatments performed in DMEM without serum for 1 h or 4 h. Treatment was terminated by removing medium and cells washing cells twice with PBS followed by nuclear staining with DAPI (4′,6-diamidino-2-phenylindole) for 10 min at room temperature. Cells were then washed with DPBS and excess buffer was removed. Coverslips were then treated with Antifade (Thermo Fisher Scientific India Private Ltd.) and sealed to a sterile glass slide and analyzed by confocal microscopy (LSM 510 Meta equipped with an Airyscan module, Zeiss, GmbH, Germany).

[3] = In vitro DOX release by dialysis method; assay type: physicochemical; conditions: physiological pH 7.4, 37° C., free DOX versus nanotube-DOX
Description: In-vitro drug release experiments were conducted using the dialysis method. The Nanotube-DOX conjugate was dialyzed against medium under different conditions: pH 5, pH 7.4, pH 7.4 with addition of 10 mM GSH, pH 5+10 mM GSH, pH 7.5+10 mM GSH+Enzyme (trypsin) and pH 5+10 mM GSH+trypsin. GSH was used to stimulate redox conditions and trypsin was used to investigate the effect of a non-specific enzyme on nanotube drug carrying ability. As a control free DOX was dialyzed against the same medium at physiological pH (7.4). All dialysis experiments were performed using a dialysis kit having a molecular mass cutoff of 1 kDa. Samples were dialyzed against the DMEM medium without phenol red (Thermofisher scientific) containing 1% P/S (Penicillin-Streptomycin, Cat no, India), 10% FBS (Fetal bovine serum, RM10432, Himedia, India) separately, with gentle and constant stirring at 37° C. At specific time points, aliquots of the medium were collected and absorbance at 495 nm was measured to quantify the release of DOX.

[4] = system: integrin receptors on the cell surface (HeLa cells); test: Confocal imaging of nanotube-FITC interaction with HeLa cells; assay type: cell-based; conditions: for change of cell-associated signal after integrin inhibitor RGDS: 1 h with 25 μg/ml inhibitor after 4 h incubation
Description: as §3

[5] = Stability of mature nanotubes by AFM; assay type: physicochemical; conditions: ~9-months old nanotubes
Description: AFM experiments were performed on a NX-10 AFM (Park systems) system in the non-contact mode. The protein sample was dropped onto freshly cleaved mica and incubated for 20 min. After rinsing with Milli-Q water two times, the sample was dried in a desiccator. […] The tip radius was <10 nm. Images were obtained at a scan rate of 1 Hz.

Zeta potential = assay type: physicochemical
Description: The Nano tubular size distribution was measured on Zetasizer (Malvern, Southborough, Mass., USA). The changes in the surface charges of free nanotube and nanotube-DOX were probed via the zeta potential using Nano ZS (Malvern, Southborough, Mass., USA).

[6] = system: integrin-induced phosphorylation of FAK at tyrosine 397; test: Integrin signaling: Western blot of FAK phosphorylation at tyrosine 397 in HeLa cells; assay type: cell-based; conditions: 500 ng/ml, 1 h
Description: Cells were maintained as mentioned above in 65 mm dishes. HeLa cells were serum starved for 24 h to remove the effect of serum on cells. Cells were treated with nanotubes or full length IGFBP-2 (1-289) for 1 h in serum-free DMEM. An additional set of cells was treated for 1 h with nanotubes or full length IGFBP-2 without the integrin pathway inhibitor (RGDS) under the same conditions. For control treatments, cells were pretreated with 10 mM RGDS peptide for 1 h. Later, cells were washed once with PBS and lysed in detergent lysis buffer (150 mM NaCl (Sigma Aldrich, USA), 0.1% SDS (Calbiochem, Germany), 0.5% NP40 (Amresco, USA), 1 mM EDTA (pH 8) and protease inhibitor cocktail, PIC (Calbiochem) with gentle vortexing at 4° C. for 20 min and centrifuged at 10,000×g for 10 min. The soluble fraction was separated and, protein estimation was done by Bradford assay. 30 μg of total protein was dissolved in SDS sample buffer (240 mM Tris-HCl (pH 6.8), 8% (w/v) SDS, 0.1% bromophenol blue and 40% (v/v) glycerol), heated at 96° C. for 10 min and centrifuged briefly. Samples were resolved on 12.5% SDS-polyacrylamide gels in Tris-glycine electrophoresis buffer (pH 8.3) containing 25 mM Tris base, 250 mM glycine and 0.1% SDS at 100 Volts for 2 h. […]

[7] = Stability of nanotubes by fluorescence emission spectra at various pH and temperature; assay type: physicochemical
Description: Fluorescence spectra were acquired on a Perkin Elmer Fluorescence spectrometer. Spectra were recorded for protein samples prepared in 10 mM Tris buffer at pH 7 or 12 (i.e., neutral and basic pH) and 10 mM HEPES buffer at pH 2 (acidic pH) and data were recorded using a 1.0 cm path length quartz cuvette. An excitation wavelength of 280 nm (tyrosine excitation) was used having slit width 2.5 nm and emission spectra were collected from 300 nm to 550 nm with λmax at 340 nm.

For `COc1cccc2c1C(=O)c1c(O)c3c(c(O)c1C2=O)C[C@@](O)(C(=O)CO)C[C@@H]3O[C@H]1C[C@H](N)[C@H](O)[C@H](C)O1.Cl` [free DOX, Doxorubicin hydrochloride], the cells killed (HeLa; 5 μg/ml, 48 h) was roughly 70%, the cells killed (MDAMB231; MDAMB231, 5 μg/ml, 48 h) was roughly 70% and the “increase in Dox uptake from 2 h to 4 h” value (HeLa cells [1]) was “more than 5 fold”. For the same molecule, the “intracellular localization of drug” value (HeLa cells [2]) was “major accumulation is seen within nuclei” and the “release of DOX into the medium” value [3] was “faster than that of DOX loaded on the nanotube”.
In the case of “Fluorescein isothiocyanate [free FITC, reference compound]”, the “change of cell-associated signal after integrin inhibitor RGDS” value [4] is reported as “does not show a significant decrease”.
With “nanotube-FITC (GPLGSPGIRGSCVNPNTGK(FITC)LIQGAPTIRGDPECHLFYNEQQEACGVHTQRMT; not fully specified (bridges); also: self-assembled nanotube, subunits linked by intermolecular cysteine disulfides)” the “internalization / cellular distribution” value ([4]; 360 ng/ml, 4 h, serum free medium) was “no significant internalization” and the “change of cell-associated signal after integrin inhibitor RGDS” value [4] was “prominent loss of nanotube-FITC intensity”.
With “nanotube: Self-assembled disulfide-linked nanotube of polypeptide hIGFBP-2 249-289 (R281C), SEQ ID NO: 1, with RGD motif (GPLGSPGIRGSCVNPNTGKLIQGAPTIRGDPECHLFYNEQQEACGVHTQRMT; not fully specified (bridges); also: self-assembled nanotube, subunits linked by intermolecular disulfides (Cys12, Cys33, Cys44))” the “morphological characteristics on storage” value [5] was “intact”, the zeta potential (Zeta potential) was −21.4 mV and the “cytotoxicity of nanotube alone” value (HeLa; after 48 h) was “did not cause any appreciable cytotoxicity”. For the same molecule, the “pFAK induction in presence of RGDS inhibitor” value ([6]; RGDS pre-treatment) was “compromised”, the “intensity of pFAK” value ([6]; absence of inhibitor) was “higher compared to control cells” and the “cytotoxicity of nanotube alone” value (MDAMB231; MDAMB231, after 48 h) was “did not cause any appreciable cytotoxicity”. For the same molecule, the “stability at different pH” value ([7]; pH 2, 7 and 12, fluorescence spectra) was “stable at all the three pH” and the “stability at high temperature” value ([7]; pH 7, 90° C., fluorescence spectra) was “intact”.
